Reference: patent US10653688B2, “6-(6-membered heteroaryl and aryl)isoquinolin-3-yl carboxamides and preparation and use thereof” (Samumed, LLC, priority 2017, dated 2020)

Assays:
[1] = test system: Wnt activity (SW480 colon carcinoma cells stably expressing the Sp5-Luc reporter gene); test: Wnt activity screening assay (Sp5-Luc reporter gene assay); format: cell-based, human; conditions: Homo sapiens; for EC50: 36 to 48 hours; for inhibition at 10 µM: read-out: percent inhibition at 10 μM (given for EC50 >10 μM), 10 μM
Procedure, shortened: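 EC50 values come from a variable-slope four-parameter fit of luminescence normalized to DMSO-only wells. The read-out follows 36–48 h incubation at 37 °C, 5% CO2, in DMEM containing 1% fetal bovine serum. Cells are hygromycin-selected SW480 stably expressing firefly luciferase under a Wnt-responsive Sp5 promoter (eight TCF/LEF sites).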

[2] = test system: Cyclin D1 phosphorylation at Threonine 286 (pCcnD1) over total Cyclin D1 in SH-SY5Y cells; test: phosphoCcnD1 to total CcnD1 ratio (PTT) cell-based assay, western blot; conditions: Homo sapiens, 48 hours
Protocol: Representative compounds were screened using the cell-based assay procedure for the ratio of signal of Cyclin D1 phosphorylation at Threonine 286 (pCcnD1) over the signal of total Cyclin D1 (CcnD1) (abbreviated: phosphoCcnD1 to total CcnD1 ratio, or PTT) as described below.
SH-SY5Y cells (human neuroblastoma, Sigma, Saint-Louis, Mo.) were cultured in 1:1 DMEM/F-12 medium supplemented with 15% FBS, 1% non-essential amino acid, and 1% penicillin/streptomycin.
SH-SY5Y cells were seeded at 1.0×10^5 cells in 1 mL per well in a 24-well plate. After cell adherence was confirmed, DMSO-resuspended Samumed compounds were dispensed to eight wells as a serial dilution from 10 μM to 4.6 nM final concentration in medium, or at 1.1 μM to 4.6 nM with particularly potent compounds. Cells were exposed to Samumed compounds for 48 hours in a 37° C. incubator.
Wells of compound-treated cells were visually checked for cell death before being washed with 500 μL per well of 1×DPBS supplemented with phosphatase inhibitor diluted to 1×. Cells were then lysed with 90 μL 1×RIPA buffer supplemented with phosphatase and protease inhibitors (each diluted to a final 1×). After scraping, 60 μL of cell lysate from each sample was used to dilute 4×LDS (ThermoFisher, NP0007) and 20×XT reducing agent (Bio-Rad, 1610792), each diluted to 1× final. All samples were then denatured via boiling at 95° C. Denatured cell sample lysates were directly tested for pCcnD1 and total CcnD1 signal by Western blot techniques and analysis. Specifically, denatured lysates were directly transferred to NuPAGE™ 4-12% Bis-Tris Midi Protein Gels, 26-well gels (ThermoFisher, WG1403BOX). Gels were transferred to […] nitrocellulose membranes via iBlot™ Transfer Stack, nitrocellulose, regular size (ThermoFisher, IB301031). Membranes were blocked with 1×TBS, 5% milk (Bio-Rad, 1706404XTU) before being probed for overnight with either anti-pCcnD1 primary antibody (Cell Signaling Technology, 2978S) or anti-total CcnD1 primary antibody (Cell Signaling Technology, 3300S) diluted 1:500 in 1×TBS-0.05% Tween-20, 3% milk. After overnight incubation in primary antibodies, membranes were washed profusely with 1×TBS-0.05% Tween-20 and probed for 1 hour with secondary anti-rabbit/HRP conjugate (Cell Signaling Technology, 7074S) diluted 1:1000 in 1×TBS-0.05% Tween-20, 3% milk. After incubation in secondary antibody, membranes were washed with 1×TBS-0.05% Tween-20.
Probed and washed membranes were developed for pCcnD1 or total CcnD1 signal with SuperSignal™ West Femto Maximum Sensitivity Substrate (ThermoFisher, 34096) using the ChemoDoc-It^2 (UVP) and related GelDocIt imaging software. Blots were then stripped, blocked, stained with anti-β-actin/HRP conjugate antibody (Cell Signaling Technology, 5125S), developed, and imaged for housekeeping β-actin protein control as previously described. Densitometry was measured with ImageJ (NIH) and signal was used to plot, draw the curves fitting, and determine the EC50 values in GraphPad Prism for tested Samumed compounds.

[3] = test system: secreted cytokines TNFα, IL-6 and KC-GRO in BV-2 cells (mouse microglial cells); test: Secreted cytokines in lipopolysaccharide-stimulated mouse glial cell line; format: cell-based; conditions: LPS 250 ng/mL 5 hours, table does not say which cytokine
Protocol: Representative compounds were screened using the cell-based assay procedure for secreted cytokines in a Lipopolysaccharide-stimulated mouse glial cell line described below.
BV-2 cells (mouse microglial cells) were cultured in 1:1 DMEM medium supplemented with 10% FBS, and 1% penicillin/streptomycin.
BV-2 cells are plated at 35,000 cells/well in a volume of 100 μl for at least 4 hours before compounds are added. DMSO-resuspended compounds were first dispensed in a 96-well plate and serial diluted from 10 μM to 4.6 nM final concentration in medium. Compounds were added to cells overnight. 250 ng/mL of lipopolysaccharide (Escherichia coli O111:B4, SIGMA) was added for 5 hours. Supernatant is removed and saved for further cytokine detection. The original plates with seeded cells were tested for cytotoxicity by measure of adenosine triphosphate (ATP) release by adding CellTiter-Glo® diluted 1:4 in distilled water (G7573, Promega) and transferring lysed cells to a completely black 96-well plate to be read with the Cytation3. Supernatant was then diluted 1:2 with a diluent from V-PLEX cytokine Kit and directly tested for the secreted cytokines TNFα, IL-6 and KC-GRO using electrochemiluminescence (Meso Scale Discovery). The standard curve for each cytokine was used to convert the electrochemiluminescent signal into pg of protein per mL. The signal was used to plot, draw the curve fitting, and determine each compounds EC50 in Prism (GraphPad).

SMILES | EC50 [1] [nM] | EC50 [2] [nM] | EC50 [3] [nM] | inhibition at 10 µM [1] [%]
O=C(Nc1cc2cc(-c3cncc(NC4CCNCC4)n3)ccc2cn1)C1CCCCC1 [Compound 44, N-(6-(6-(piperidin-4-ylamino)pyrazin-2-yl)isoquinolin-3-yl) cyclohexanecarboxamide] | 319 | 4 | 60 | –
O=C(CN1CCCC1)Nc1cc2cc(-c3cncc(F)c3)ccc2cn1 [Compound 18, N-(6-(5-Fluoropyridin-3-yl)isoquinolin-3-yl)-2-(pyrrolidin-1-yl)acetamide] | > 10000 | 123 | 1330 | 9.2
CN1CCN(CC(=O)Nc2cc3cc(-c4cccnc4)ccc3cn2)CC1 [Compound 11, 2-(4-Methylpiperazin-1-yl)-N-(6-(pyridin-3-yl)isoquinolin-3-yl)acetamide] | > 10000 | – | 327 | 10.8
CN1CCN(CC(=O)Nc2cc3cc(-c4cncc(F)c4)ccc3cn2)CC1 [Compound 20, N-(6-(5-Fluoropyridin-3-yl)isoquinolin-3-yl)-2-(4-methylpiperazin-1-yl) acetamide] | > 10000 | 355 | – | 17.4
CN1CCN(C[C@H]2CC[C@H](C(=O)Nc3cc4cc(-c5cncc(F)c5)ccc4cn3)CC2)CC1 [Compound 17, trans-N-(6-(5-Fluoropyridin-3-yl)isoquinolin-3-yl)-4-((4-methylpiperazin-1-yl)methyl)cyclohexane-1-carboxamide] | 6730 | – | 38 | –
O=C(CN1CCCC1)Nc1cc2cc(-c3cccnc3)ccc2cn1 [Compound 7, N-(6-(Pyridin-3-yl)isoquinolin-3-yl)-2-(pyrrolidin-1-yl)acetamide] | 3840 | – | 6 | –
O=C(Nc1cc2cc(-c3cccnc3)ccc2cn1)C12CCN(CC1)CC2 [Compound 9, N-(6-(Pyridin-3-yl)isoquinolin-3-yl)quinuclidine-4-carboxamide] | > 10000 | – | 745 | 11.8
O=C(CN1CCOCC1)Nc1cc2cc(-c3cccnc3)ccc2cn1 [Compound 10, 2-Morpholino-N-(6-(pyridin-3-yl)isoquinolin-3-yl)acetamide] | > 10000 | – | 75 | 15.3
CN1CCCN(CC(=O)Nc2cc3cc(-c4cccnc4)ccc3cn2)CC1 [Compound 12, 2-(4-Methyl-1,4-diazepan-1-yl)-N-(6-(pyridin-3-yl)isoquinolin-3-yl) acetamide] | > 10000 | – | 1000 | 39.8
CN1CCN(CC(=O)Nc2cc3cc(-c4ccc(F)nc4)ccc3cn2)CC1 [Compound 21, N-(6-(6-Fluoropyridin-3-yl)isoquinolin-3-yl)-2-(4-methylpiperazin-1-yl) acetamide] | > 10000 | – | 671 | 5.5

Continued, in another order:

EC50 [1] [nM] | EC50 [2] [nM] | EC50 [3] [nM] | SMILES | inhibition at 10 µM [1] [%]
738 | 412 | 211 | O=C(Nc1cc2cc(-c3cncc(NC4CCNCC4)n3)ccc2cn1)C1CCOCC1 [Compound 109, N-(6-(6-(Piperidin-4-ylamino)pyrazin-2-yl)isoquinolin-3-yl)tetrahydro-2H-pyran-4-carboxamide] | –
> 10000 | – | 629 | O=C(Nc1cc2cc(-c3cnccn3)ccc2cn1)[C@H]1CC[C@H](N2CCOCC2)CC1 [Compound 71, trans-4-Morpholino-N-(6-(pyrazin-2-yl)isoquinolin-3-yl)cyclohexane-1-carboxamide] | 32.1
> 10000 | – | 694 | CN1CCN(C[C@H]2CC[C@H](C(=O)Nc3cc4cc(-c5cnccn5)ccc4cn3)CC2)CC1 [Compound 73, trans-4-((4-Methylpiperazin-1-yl)methyl)-N-(6-(pyrazin-2-yl)isoquinolin-3-yl)cyclohexane-1-carboxamide] | 33.3
> 10000 | – | 750 | O=C(Nc1cc2cc(-c3cnccn3)ccc2cn1)[C@H]1C[C@H](N2CCOCC2)C1 [Compound 69, trans-3-Morpholino-N-(6-(pyrazin-2-yl)isoquinolin-3-yl)cyclobutane-1-carboxamide] | 9
> 10000 | – | 1310 | O=C(Nc1cc2cc(-c3cnccn3)ccc2cn1)[C@H]1CC[C@H](CN2CC(F)C2)CC1 [Compound 72, trans-4-((3-Fluoroazetidin-1-yl)methyl)-N-(6-(pyrazin-2-yl)isoquinolin-3-yl)cyclohexane-1-carboxamide] | 35.7
312 | – | 109 | CN1CCC(C(=O)Nc2cc3cc(-c4cncc(N5CCCC5)c4)ccc3cn2)CC1 [Compound 50, 1-Methyl-N-(6-(5-(pyrrolidin-1-yl)pyridin-3-yl)isoquinolin-3-yl)piperidine-4-carboxamide] | –
> 10000 | – | 406 | O=C(CN1CCOCC1)Nc1cc2cc(-c3ccnnc3)ccc2cn1 [Compound 67, 2-morpholino-N-(6-(pyridazin-4-yl)isoquinolin-3-yl)acetamide] | 26.5
> 10000 | – | 307 | [2H]c1nc([2H])c(-c2ccc3cnc(NC(=O)CN4CCOCC4)cc3c2)c([2H])c1[2H] [Compound 62, 2-Morpholino-N-(6-(pyridin-3-yl-d4)isoquinolin-3-yl)acetamide] | 18.4
> 10000 | – | 131 | O=C(Nc1cc2cc(-c3cnccn3)ccc2cn1)C1CCN(C2COC2)CC1 [Compound 78, 1-(Oxetan-3-yl)-N-(6-(pyrazin-2-yl)isoquinolin-3-yl)piperidine-4-carboxamide] | 28.1
> 10000 | – | 86 | [2H]c1nc([2H])c(-c2ccc3cnc(NC(=O)CN4CCN(C)CC4)cc3c2)c([2H])c1[2H] [Compound 61, 2-(4-Methylpiperazin-1-yl)-N-(6-(pyridin-3-yl-d4)isoquinolin-3-yl)acetamide] | 19.6
68 | – | 1070 | CC(C)Nc1cncc(-c2ccc3cnc(NC(=O)C4CCN(C)CC4)cc3c2)n1 [Compound 88, N-(6-(6-(Isopropylamino)pyrazin-2-yl)isoquinolin-3-yl)-1-methylpiperidine-4-carboxamide] | –
> 10000 | – | 280 | O=C(Nc1cc2cc(-c3cnccn3)ccc2cn1)C1CCN(CCF)CC1 [Compound 77, 1-(2-Fluoroethyl)-N-(6-(pyrazin-2-yl)isoquinolin-3-yl)piperidine-4-carboxamide] | 36.4
